In patent US6667387B1, “HCV core peptides” (priority 1992, dated 2003):
Ends that are not written are not given here.

Legend:
[1] = tested on: antibodies in sera from HCV-seropositive donors; assay: ELISA with HCV antibody-positive sera (biotinylated peptides on streptavidin- or avidin-coated plates, unbiotinylated peptides coated directly); format: binding, human
Method in brief: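 Read-out is OD at 450 nm after HRP goat anti-human Ig and TMB development, following 1 h at 37° C. with seropositive or negative sera diluted 1:100 (or 20-fold). Antigen was either unbiotinylated peptide adsorbed on plastic (pH 9.6 carbonate, 2–5 or 3 μg/ml) or biotinylated peptide at 1 μg/ml captured on streptavidin-coated wells, with casein blocking.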

[2] = ELISA with seronegative / negative control sera (specificity); format: binding, human
Method in brief: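 Specificity readout is OD at 450 nm (HRP goat anti-human Ig, TMB/H2O2, sulfuric acid stop), with ≥0.250 counted positive. Seronegative donor sera (typically 1:100, 1 h, 37° C) were applied to casein-blocked wells coated with peptide directly or via streptavidin capture of biotinylated peptide.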

ETWKKPDYEPPVVHGCPLPP
optical density (450 nm) ([1]; Table 4G, serum 1, 20-fold dilution): 2.523
optical density (450 nm) ([1]; Table 4G, serum 33, 20-fold dilution): 1.463
optical density (450 nm) ([1]; Table 4G, serum 39, 20-fold dilution): 0.068
optical density (450 nm) ([1]; Table 4G, serum 47, 20-fold dilution): 2.117
optical density (450 nm) ([1]; Table 4G, serum 79, 20-fold dilution): 1.739
optical density (450 nm) ([1]; Table 4G, serum 83, 20-fold dilution): 1.121
optical density (450 nm) ([1]; Table 4G, serum 88, 20-fold dilution): 0.972
optical density (450 nm) ([1]; Table 4G, serum 89, 20-fold dilution): 2.079
optical density (450 nm) ([1]; Table 4G, serum 91, 20-fold dilution): 2.202
optical density (450 nm) ([1]; Table 4G, serum 99, 20-fold dilution): 1.253
optical density (450 nm) ([1]; Table 4G, serum 104, 20-fold dilution): 1.864
optical density (450 nm) ([1]; Table 4G, serum 105, 20-fold dilution): 1.522
optical density (450 nm) ([1]; Table 4G, serum 110, 20-fold dilution): 1.981
optical density (450 nm) ([1]; Table 4G, serum 111, 20-fold dilution): 1.363
optical density (450 nm) ([1]; Table 4G, serum 112, 20-fold dilution): 1.172
optical density (450 nm) ([1]; Table 4G, serum 116, 20-fold dilution): 1.534
optical density (450 nm) ([1]; Table 4G, serum 120, 20-fold dilution): 1.599
optical density (450 nm) ([1]; Table 5, sample 8242 (positive), peptide concentration 0.01 micrograms per milliliter, listed as Unbiotinylated HCV peptide XVIII): 0.048
optical density (450 nm) ([1]; Table 5, sample 8242 (positive), peptide concentration 0.03 micrograms per milliliter, listed as Unbiotinylated HCV peptide XVIII): 0.049
optical density (450 nm) ([1]; Table 5, sample 8242 (positive), peptide concentration 0.1 micrograms per milliliter, listed as Unbiotinylated HCV peptide XVIII): 0.047
optical density (450 nm) ([1]; Table 5, sample 8242 (positive), peptide concentration 0.3 micrograms per milliliter, listed as Unbiotinylated HCV peptide XVIII): 0.048
optical density (450 nm) ([1]; Table 5, sample 8242 (positive), peptide concentration 1.0 micrograms per milliliter, listed as Unbiotinylated HCV peptide XVIII): 0.049
optical density (450 nm) ([1]; Table 5, sample 8242 (positive), peptide concentration 3.0 micrograms per milliliter, listed as Unbiotinylated HCV peptide XVIII): 0.053
optical density (450 nm) ([1]; Table 5, sample 8243 (positive), peptide concentration 0.01 micrograms per milliliter, listed as Unbiotinylated HCV peptide XVIII): 0.053
optical density (450 nm) ([1]; Table 5, sample 8243 (positive), peptide concentration 0.03 micrograms per milliliter, listed as Unbiotinylated HCV peptide XVIII): 0.053
optical density (450 nm) ([1]; Table 5, sample 8243 (positive), peptide concentration 0.1 micrograms per milliliter, listed as Unbiotinylated HCV peptide XVIII): 0.051
optical density (450 nm) ([1]; Table 5, sample 8243 (positive), peptide concentration 0.3 micrograms per milliliter, listed as Unbiotinylated HCV peptide XVIII): 0.054
optical density (450 nm) ([1]; Table 5, sample 8243 (positive), peptide concentration 1.0 micrograms per milliliter, listed as Unbiotinylated HCV peptide XVIII): 0.053
optical density (450 nm) ([1]; Table 5, sample 8243 (positive), peptide concentration 3.0 micrograms per milliliter, listed as Unbiotinylated HCV peptide XVIII): 0.057
optical density (450 nm) ([1]; Table 5, sample 8318 (positive), peptide concentration 0.01 micrograms per milliliter, listed as Unbiotinylated HCV peptide XVIII): 0.048
optical density (450 nm) ([1]; Table 5, sample 8318 (positive), peptide concentration 0.03 micrograms per milliliter, listed as Unbiotinylated HCV peptide XVIII): 0.047
optical density (450 nm) ([1]; Table 5, sample 8318 (positive), peptide concentration 0.1 micrograms per milliliter, listed as Unbiotinylated HCV peptide XVIII): 0.047
optical density (450 nm) ([1]; Table 5, sample 8318 (positive), peptide concentration 0.3 micrograms per milliliter, listed as Unbiotinylated HCV peptide XVIII): 0.047
optical density (450 nm) ([1]; Table 5, sample 8318 (positive), peptide concentration 1.0 micrograms per milliliter, listed as Unbiotinylated HCV peptide XVIII): 0.045
optical density (450 nm) ([1]; Table 5, sample 8318 (positive), peptide concentration 3.0 micrograms per milliliter, listed as Unbiotinylated HCV peptide XVIII): 0.051
optical density (450 nm) ([1]; Table 5, sample 8326 (positive), peptide concentration 0.01 micrograms per milliliter, listed as Unbiotinylated HCV peptide XVIII): 0.051
optical density (450 nm) ([1]; Table 5, sample 8326 (positive), peptide concentration 0.03 micrograms per milliliter, listed as Unbiotinylated HCV peptide XVIII): 0.051
optical density (450 nm) ([1]; Table 5, sample 8326 (positive), peptide concentration 0.1 micrograms per milliliter, listed as Unbiotinylated HCV peptide XVIII): 0.049
optical density (450 nm) ([1]; Table 5, sample 8326 (positive), peptide concentration 0.3 micrograms per milliliter, listed as Unbiotinylated HCV peptide XVIII): 0.053
optical density (450 nm) ([1]; Table 5, sample 8326 (positive), peptide concentration 1.0 micrograms per milliliter, listed as Unbiotinylated HCV peptide XVIII): 0.053
optical density (450 nm) ([1]; Table 5, sample 8326 (positive), peptide concentration 3.0 micrograms per milliliter, listed as Unbiotinylated HCV peptide XVIII): 0.052
optical density (450 nm) ([2]; Table 4G, negative serum): 0.001
optical density (450 nm) ([2]; Table 5, sample 1747 (negative), peptide concentration 0.01 micrograms per milliliter, listed as Unbiotinylated HCV peptide XVIII): 0.047
optical density (450 nm) ([2]; Table 5, sample 1747 (negative), peptide concentration 0.03 micrograms per milliliter, listed as Unbiotinylated HCV peptide XVIII): 0.044
optical density (450 nm) ([2]; Table 5, sample 1747 (negative), peptide concentration 0.1 micrograms per milliliter, listed as Unbiotinylated HCV peptide XVIII): 0.045
optical density (450 nm) ([2]; Table 5, sample 1747 (negative), peptide concentration 0.3 micrograms per milliliter, listed as Unbiotinylated HCV peptide XVIII): 0.046
optical density (450 nm) ([2]; Table 5, sample 1747 (negative), peptide concentration 1.0 micrograms per milliliter, listed as Unbiotinylated HCV peptide XVIII): 0.045
optical density (450 nm) ([2]; Table 5, sample 1747 (negative), peptide concentration 3.0 micrograms per milliliter, listed as Unbiotinylated HCV peptide XVIII): 0.048
optical density (450 nm) ([2]; Table 5, sample 1781 (negative), peptide concentration 0.01 micrograms per milliliter, listed as Unbiotinylated HCV peptide XVIII): 0.053
optical density (450 nm) ([2]; Table 5, sample 1781 (negative), peptide concentration 0.03 micrograms per milliliter): 0.051
optical density (450 nm) ([2]; Table 5, sample 1781 (negative), peptide concentration 0.1 micrograms per milliliter, listed as Unbiotinylated HCV peptide XVIII): 0.051
optical density (450 nm) ([2]; Table 5, sample 1781 (negative), peptide concentration 0.3 micrograms per milliliter, listed as Unbiotinylated HCV peptide XVIII): 0.051
optical density (450 nm) ([2]; Table 5, sample 1781 (negative), peptide concentration 1.0 micrograms per milliliter, listed as Unbiotinylated HCV peptide XVIII): 0.054
optical density (450 nm) ([2]; Table 5, sample 1781 (negative), peptide concentration 3.0 micrograms per milliliter, listed as Unbiotinylated HCV peptide XVIII): 0.055
